Consider two compounds from patent US10576057B2, “Methods for treating muscle wasting and degeneration diseases” (NEWTREE CO., LTD., priority 2015, dated 2020).

In test [1] the test system is MuRF-1. Description: MuRF-1 mRNA expression by RT-PCR in TNF-α-treated L6 muscle cells. It is filed as cell-based. The settings on record: differentiated L6 muscle cells, 50 ng/mL TNF-α. The procedure: L6 myoblast (ATCC) was added to a 6-well plate at 2×10^5 cells/ml together with DMEM (Hyclone) containing 10% FBS (Hyclone). When the cell density reached about 80% to 85%, the medium in the wells was removed and myotube differentiation was induced by treating the cells with DMEM (Hyclone) containing 2% HS (Hyclone). The medium was replaced with fresh medium every two days and the differentiation was carried out for a total of 6 days. After differentiation, 0.1 μM and 1 μM of morusin prepared in Example 2-1 were respectively dissolved in DMEM (Hyclone) containing 50 ng/mL tumor necrosis factor alph (TNF-α; PeproTech, Rocky Hills, N.J., USA), followed by their treatment on the cells. After 6 hours, total RNA was isolated using TRIzol reagent (Invitrogen). The isolated total RNA was quantified using NanoDrop 1000 (Thermo Fisher Scientific Inc.). The quantified 16 μL of RNA was synthesized into cDNA using Reverse Transcriptase Premix (ELPIS-Biotech) and PCR machine (Gene Amp PCR System 2700: Applied Biosystems) at 42° C. for 55 minutes and at 70° C. for 15 minutes. The PCR was performed by repeating 30 cycles at 95° C. for 30 seconds, at 60° C. for 1 minute and at 72° C. for 1 minute with 4 μl of 16 μl cDNA, the following specific primers (Bioneer), and PCR premix (ELPIS-Biotech): […]

Test [2] has as its system Wistar rats. Description: Muscle mass in TNF-α-induced muscular atrophy animal model. It is filed as in vivo. The settings on record: for increase in weight of muscle: 300 mg/kg body weight, 8 weeks, vs control group, p<0.01; for Average calf muscle weight: TNF-α-induced atrophy, 300 mg/kg body weight once a day for 8 weeks, right calf. The protocol: Five-week-old Wistar rats were adapted for 1 week and 100 ng/g of TNF-α was supplied for 2 weeks to induce muscular atrophy. Then, groups were randomly assigned on the basis of body weight and divided into five groups of 8 rats per each group. 500 mg/kg body weight of the ethanol extract of Mori Cortex Radicis prepared in Example 1-2, 500 mg/kg body weight of the hot-water extract of Mori Cortex Radicis prepared in Example 1-5, 300 mg/kg body weight of the morusin prepared in Example 2-1, and 300 mg/kg body weight of the kuwanon G prepared in Example 2-2 were suspended in 0.25% carboxymethylcellulose, respectively, followed by their administration on experimental groups once a day for 8 weeks at regular time. A control group was administered with TNF-α suspended in the same amount of 0.25% carboxymethyl cellulose ingested by the experimental groups.
After 8 weeks of administration, the muscles under the right calf were excised and weighed with microbalance (Mettler PE 160, USA).

Test [3] concerns p-mTOR. Description: p-mTOR protein expression by western blot in L6 muscle cells. It is filed as cell-based. The settings on record: 5 μM, differentiation 6 days, vs 0.01% DMSO control. The procedure:
L6 myoblasts (ATCC, Manassas, Va., USA) were added to a 6-well plate with Dulbecco's modified Eagle's Media (DMEM; Hyclone) containing 10% fetal bovine serum (FBS; Hyclone, Logan, Utah, USA) at a concentration of 2×10^5 cells/mL. When the cell density reached about 80 to 85%, the medium in the wells was removed. The ethanol extract of Mori Cortex Radicis (20 μg/mL) prepared in Example 1-2, the hot water extract of Mori Cortex Radicis (20 μg/mL) prepared in Example 1-5, the morusin (5 μM) and the kuwanon G (5 μM) isolated and purified in Example 2 were dissolved in DMEM (Hyclone) containing 2% HS (Hyclone), followed by its treatment to the cells to induce myotube differentiation. Meanwhile, a group treated with 0.01% DMSO instead of the sample was used as a control group. This procedure was carried out for 6 days in two days to differentiate and then dissolved in NP-40 buffer solution (ELPIS-Biotech, Daejeon, Republic of Korea) containing proteinase inhibitor cocktail. The cells dissolved in the buffer solution were transferred to a 1.5-mL tube and centrifuged at 13,000 rpm for 10 minutes to take only a supernatant. The supernatant was quantified using Bradford (Bio-Rad Laboratories Inc., Hercules, Calif., USA). The quantified proteins were boiled for 5 minutes, separated by electrophoresis on 10% SDS-PAGE, and were transferred to the nitrocellulose membrane. […]

With `CC(C)=CCc1c(-c2ccc(O)cc2O)oc2c([C@H]3C=C(C)C[C@@H](c4ccc(O)cc4O)[C@@H]3C(=O)c3ccc(O)cc3O)c(O)cc(O)c2c1=O` [Kuwanon G, 8-[(1S,5R,6S)-6-(2,4-Dihydroxybenzoyl)-5-(2,4-dihydroxyphenyl)-3-methyl-2-cyclohexen-1-yl]-2-(2,4-dihydroxyphenyl)-5,7-dihydroxy-3-(3-methyl-2-buten-1-yl)-4H-chromen-4-one], the “mRNA expression of MuRF-1” value in test [1] (concentration not given) is reported as “decreased”. In test [2], the “increase in weight of muscle” value stood at 22.60% and the “Average calf muscle weight” value is 537 ± 15.2 mg. In addition, the “expression of p-mTOR” value in test [3] is given as “increased”.

Take `CC(C)=CCc1c(-c2ccc(O)cc2O)oc2c3c(cc(O)c2c1=O)OC(C)(C)C=C3` [Morusin, 2-(2,4-Dihydroxyphenyl)-5-hydroxy-8,8-dimethyl-3-(3-methyl-2-buten-1-yl)-4H,8H-benzo[1,2-b:3,4-b′]dipyran-4-one]: in test [1] (0.1 μM and 1 μM, 6 hours), the “mRNA expression of MuRF-1” value was “decreased”. Further, in test [2], the “increase in weight of muscle” value is 23.97% and the “Average calf muscle weight” value is on record as 543 ± 32.9 mg. Moreover, in test [3], the “expression of p-mTOR” value is recorded as “increased”.
